Consider 1 compound from patent publication US20190298717A1 (BOARD OF REGENTS, THE UNIVERSITY OF TEXAS SYSTEM, priority 2016, published 2019).

In the assay the test system is Nrf2 transcriptional activity (ARE). On the procedure:
Trx1 reduces the cysteine residues critical for binding of Nrf2 to AREs (Hansen et al., 2004).
Nrf2 Transcriptional Activity Assay. The transcriptional activity of Nrf2 was determined using a luciferase-based transcription activation approach. A vector carrying a […] controlled luciferase gene (firefly luciferase) and a vector carrying the control luciferase (Renilla luciferase) from an ARE reporter kit (BPS Bioscience, San Diego, Calif.) was transiently co-transfected into the cells using Lipofectamine reagents (Thermo Fisher, Waltham, Mass.). […] Briefly, the cells were incubated with firefly luciferase substrate for 10 minutes prior to measurement luminescence in a 96-well luminescence plate reader. Subsequently, the Renilla luciferase was measured after the addition of Dual-Glo Stop & Glo reagent into the wells with a 10-minute incubation. The ratio of luminescence from firefly and Renilla was calculated to normalize and compare the Nrf2 transcriptional activity.

As to `NNc1nncc2ccccc12` [Hydralazine], under “SH-SY5Y”, the ARE binding elevation is recorded as 2 fold. For the same compound, the “luciferase activity compared to untreated cells” value (SH-SY5Y with ARE-luciferase reporter, 24 h, both concentrations) was found to be 2.0±0.2 folds.
